Experimental data from patent publication EP3075378A1, “ANTI-INFLAMMATORY AGENT AND MELANIN PRODUCTION SUPPRESSANT” (Kao Corporation, priority 2013, dated 2015).

Experiments:
[1] = test system: three-dimensional cultured skin model (MEL-300-A) composed of normal human epidermal melanocytes and epidermal keratinocytes; test: Cell survival rate (Alamar Blue) in three-dimensional cultured skin model; format: cell-based
Description: (§1) A three-dimensional cultured skin model (MEL-300-A, manufactured by MatTek Corporation) composed of normal human epidermal melanocytes and epidermal keratinocytes was cultured, using the attached medium to which factors inducing melanin production were added. 25 µL of a pentaerythritol solution (1 or 5 mmol/L) was added onto the keratinous layer of the skin model. The skin model was cultured for 11 days exchanging the medium and the test substance solution every 2 to 3 days, and then the skin model was washed, and the cell survival rate was measured using Alamar Blue (manufactured by Invitrogen). In addition, the skin model was dissolved under heating in SOLVABLE (manufactured by Perkin Elmar), and the absorbance (405 nm) was measured and the amount of melanin was calculated relative to a standard determined by similarly dissolving melanin (manufactured by SIGMA) in SOLVABLE. The amount of melanin was determined relative to 100 (%) of the control (H2O addition).
(§2) The test method is similar to that of Example 6.

[2] = test system: Normal human epidermal cells; test: Test-1 of PGE2 production suppression (arachidonic acid added); format: cell-based; conditions: culture supernatant after one day, control 1711.7 ± 25.91
Description: Normal human epidermal cells were seeded on a 24 well plate by 2 × 10^5 each, and cultured for 2 days on a MCDB153 medium. The medium was exchanged with a MCDB153 medium containing arachidonic acid (manufactured by Wako Pure Chemical Industries, Ltd.), which is a substrate of PGE2, and pentaerythritol (manufactured by JUNSEI CHEMICAL CO., LTD.) or the two acetal derivatives of pentaerythritol (the compounds of Examples 1 and 2), and the cells were further cultured for one day. As a control, purified water was added instead of pentaerythritol or the acetal derivative of pentaerythritol. After completion of the culture, the amount of PGE2 released in the cultured supernatant was quantified using a PGE2 measurement kit (manufactured by Cayman Chemical Company). In addition, in the same manner as the control, a control group to which purified water was added, but arachidonic acid was not added, was provided.

[3] = test system: three-dimensional cultured skin model (MEL-300-A) composed of normal human epidermal melanocytes and epidermal keratinocytes; test: Test of melanin production suppression, using three-dimensional cultured skin model; format: cell-based; conditions: 25 µL on keratinous layer, 11 days culture, relative to 100 (%) of control (H2O)
Description: as §1, §2

[4] = test system: Normal human epidermal cells; test: Test-2 of PGE2 production suppression (UVB irradiation); format: cell-based; conditions: after 30 mJ/cm^2 UVB, culture supernatant after one day, control 670.1 ± 23.97
Description: Normal human epidermal cells were seeded on a 24 well plate by 2 × 10^5 each, and cultured for two days on a MCDB153 medium. The medium was replaced with HEPES Buffer, and was irradiated with 30 mJ/cm^2 UVB using a UVB lamp (TOREX FL20S and E-30/DMR 20W manufactured by TOSHIBA MEDICAL SUPPLY CO., LTD.). The intensity of ultraviolet rays was measured with a digital type ultraviolet intensity meter (manufactured by Ultraviolet). After the UVB irradiation, the medium was exchanged with a MCDB153 medium containing pentaerythritol (manufactured by JUNSEI CHEMICAL CO., LTD.), and further cultured for one day. As a control, purified water was added instead of pentaerythritol. After completion of the culture, the amount of PGE2 released in the culture supernatant was quantified using a PGE2 measurement kit (manufactured by Cayman Chemical Company). In addition, in the same manner as the control, a control group containing purified water and not irradiated with UVB was provided.

[5] = Test of melanin production suppression, using three-dimensional cultured skin model; format: cell-based, human; conditions: Homo sapiens, 264 h; Addition concentration 5 mmol/L; method as Example 6; relative to control (H2O) 100; read-out: Melanin amount (%)
Description: as §1, §2

Compound | PGE2 amount (pg/mL) ± SD ([2]; sample concentration 0.5 µM) [pg/mL] | PGE2 amount (pg/mL) ± SD ([2]; sample concentration 5.0 µM) [pg/mL] | activity at 5000 µM [5] [%] | further results
OCC(CO)(CO)CO [Pentaerythritol] | 789.2 ± 168.61 | 1151.3 ± 6.73 |  | cell toxicity ([1]; 1 or 5 mmol/L, any test addition concentration, 11 days culture): not detected; amount of melanin (%) ([3]; 1 mmol/L): 83.8%; amount of melanin (%) ([3]; 5 mmol/L): 76.7%; PGE2 amount (pg/mL) ± SD ([4]; sample concentration 0.05 µM): 565.5 ± 28.10 pg/mL; PGE2 amount (pg/mL) ± SD ([4]; sample concentration 0.5 µM): 522.8 ± 50.40 pg/mL; PGE2 amount (pg/mL) ± SD ([4]; sample concentration 5.0 µM): 512.3 ± 65.31 pg/mL
OC[C@@H](O)[C@@H](O)[C@H](O)[C@H](O)CO [Mannitol, reference compound] |  |  | 96.3 | cell toxicity ([1]; 5 mmol/L, Example 7, method as Example 6): not detected
CC1(C)OCC2(CO1)COC(C)(C)OC2 [diisopropylidene pentaerythritol] | 746.0 ± 28.70 | 1142.0 ± 19.94 |  | 
CC1(C)OCC(CO)(CO)CO1 [monoisopropylidene pentaerythritol] | 824.7 ± 28.78 | 790.5 ± 11.64 |  | 
OC[C@@H](O)[C@@H](O)CO [Erythritol, reference compound] |  |  | 97 | 
